Experimental data from PubChem BioAssay AID1919006 (Molecular Pharmacology Branch, DTP, NCI, 2023).
One block for each compound: values may come before it.

System: 885512-296-R-J2-PDC complex spheroid growth, % test/control
Assay: Anticancer human tumor 885512-296-R-J2-PDC patient-derived breast carcinoma cell line growth inhibition [AhR]
Details: for IC50: curve of first compound; for viability, T/C: stronger effect = lower value
From the text: Multicellular complex tumor spheroid response to aryl hydrocarbon receptor antagonists in combination with a variety of drugs and investigational agents in selected tumor cell lines
The current study was undertaken to assess response to aryl hydrocarbon receptor antagonists in combination with standard-of-care drugs and investigational agents in solid tumor complex spheroid models. Complex spheroids include a stromal component modeled by human endothelial cells (HUVEC) and fibroblasts modeled by human mesenchymal stem cells (MSCs). The concentration ranges selected for each drug and investigational agent were based upon clinically achievable concentrations if the clinical Cmax of the agent was known.
Compounds. The drugs and investigational agents: BAY 2416964 (NSC825713), GNF351 (NSC835774), CH-223191 (NSC835775), CPI-455 (NSC825282), aza-TdCyd (NSC777586), decitabine (NSC127716), belinostat (NSC758774), entinostat (NSC756642), pevonedistat (NSC761192), tazemetostat (NSC777109), talazoparib (NSC765396), olaparib (NSC753686), selinexor (NSC780203), nedisertib (M3814, NSC802822), bortezomib (NSC756655), venetoclax (NSC766270), doxorubicin (NSC123127), elimusertib (BAY189344, NSC800525), ceralasertib (AZD6738, NSC777638), TAK-243 (NSC785004), alisertib (NSC759677), etoposide (NSC141540), topotecan (NSC609699), eribulin (NSC707389), gemcitabine (NSC613327), carboplatin (NSC241240), cisplatin (NSC119875), and SN-38 (NSC673596) were obtained from the National Cancer Institute (NCI) Developmental Therapeutics Program Chemical Repository (32). The FDA-approved anticancer drug set is available from the Developmental Therapeutics Program at https://dtp.cancer.gov/organization/dscb/obtaining/available plates.htm. […] The stock solutions were prepared in dimethyl sulfoxide (DMSO, Sigma-Aldrich, St. Louis, MO, cat. D2650), except for the platinum compounds which were prepared in saline (Quality Biological, Gaithersburg, MD, cat. 114-055-101), at 800-fold the tested concentration and stored at -70 degrees C prior to their use. All drugs and investigational agents were tested over a range starting from a high concentration at or near the clinical Cmax and decreasing in half-log increments. If the clinical Cmax for an agent had not been determined, the highest concentration tested was 10 microM (Table 1).
Cell Culture. All cells were maintained in an incubator at 37 degrees C and 5% CO2 with 95% humidity. The PDC lines were cultured according to standard operating procedures established by the NCI PDMR (https://pdmr.cancer.gov). Briefly, all PDCs were thawed and cultured in Matrigel-coated flasks prepared with a working solution of 1X Ham's F-12 nutrient mix, without supplementation (Invitrogen, Waltham, MA, cat. 11765054), 100 U/mL penicillin-streptomycin (Invitrogen, cat. 15140122), and 2.5% Matrigel (Corning Inc., Corning, NY, cat. 354248) for the first three passages. All PDCs were cultured in complete DMEM/F-12 media containing advanced DMEM/F-12 (Invitrogen, cat. 12634028), 4.9% defined fetal bovine serum, heat inactivated (HyClone Laboratories Inc., Logan, UT, cat. SH30070.03HI), 389 ng/mL hydrocortisone (Sigma-Aldrich, cat. H4001), 9.7 ng/mL human EGF recombinant protein (Invitrogen, cat. PHG0313), 23.4 microg/mL adenine (Sigma-Aldrich, cat. A2786), 97.3 U/mL penicillin-streptomycin (Invitrogen, cat. 15140122), 1.9 mM L-glutamine (Invitrogen, cat. 25030081), and 9.7 microM Y-27632 dihydrochloride (Tocris Bioscience, Bristol, United Kingdom, cat. 1254). The PDCs were cultured in complete DMEM/F12 media without 10 microM Y-27632 dihydrochloride for at least two passages prior to the screen. The established cell lines NCI-H1341 and […] were cultured in DMEM/F-12, HEPES (Invitrogen, cat. 11330032), 5% defined fetal bovine serum (HyClone Laboratories Inc., cat. SH30070.03), ITS premix universal culture supplement [insulin (5 microg/mL), transferrin (5 microg/mL), and selenious acid (5 ng/mL)] […]

[1] = second compound 0.1 µM, first compound 0.0316 µM
[2] = second compound 0.1 µM, first compound 0.1 µM
[3] = second compound 0.1 µM, first compound 0.316 µM
[4] = second compound 0.1 µM, first compound 1 µM
[5] = second compound 0.1 µM, first compound 3.16 µM
[6] = second compound 0.1 µM, first compound 10 µM
[7] = second compound 0.316 µM, first compound 0.0316 µM
[8] = second compound 0.316 µM, first compound 0.1 µM
[9] = second compound 0.316 µM, first compound 0.316 µM
[10] = second compound 0.316 µM, first compound 1 µM
[11] = second compound 0.316 µM, first compound 3.16 µM
[12] = second compound 0.316 µM, first compound 10 µM
[13] = second compound 1 µM, first compound 0.0316 µM
[14] = second compound 1 µM, first compound 0.1 µM
[15] = second compound 1 µM, first compound 0.316 µM
[16] = second compound 1 µM, first compound 1 µM
[17] = second compound 1 µM, first compound 3.16 µM
[18] = second compound 1 µM, first compound 10 µM
[19] = second compound 3.16 µM, first compound 0.0316 µM
[20] = second compound 3.16 µM, first compound 0.1 µM
[21] = second compound 3.16 µM, first compound 0.316 µM
[22] = second compound 3.16 µM, first compound 1 µM
[23] = second compound 3.16 µM, first compound 3.16 µM
[24] = second compound 3.16 µM, first compound 10 µM
[25] = second compound 10 µM, first compound 0.0316 µM
[26] = second compound 10 µM, first compound 0.1 µM
[27] = second compound 10 µM, first compound 0.316 µM
[28] = second compound 10 µM, first compound 1 µM
[29] = second compound 10 µM, first compound 3.16 µM
[30] = second compound 10 µM, first compound 10 µM
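Further: spheroids exposed to compounds for seven days.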

IC50 (second compound 0.1 µM): 5.22 nM
IC50 (second compound 0.316 µM): 5.67 nM
IC50 (second compound 1 µM): 5.45 nM
IC50 (second compound 3.16 µM): 5.42 nM
IC50 (second compound 10 µM): 5.75 nM
SMILES: CC(C)CC(NC(=O)C(Cc1ccccc1)NC(=O)c1cnccn1)B(O)O (stereo not given) + CC(CO)NC(=O)c1cc(-c2ccc(Cl)cc2)nn(-c2cnn(C)c2)c1=O
viability, T/C (second compound 0.1 µM, first compound 0.000949 µM): 97%
viability, T/C (second compound 0.1 µM, first compound 0.003 µM): 86.5%
viability, T/C (second compound 0.1 µM, first compound 0.00949 µM): 10.7%
viability, T/C (second compound 0.1 µM, first compound 0.03 µM): 0.69%
viability, T/C (second compound 0.1 µM, first compound 0.0949 µM): 0.12%
viability, T/C (second compound 0.1 µM, first compound 0.3 µM): 0.12%
viability, T/C (second compound 0.316 µM, first compound 0.000949 µM): 96.1%
viability, T/C (second compound 0.316 µM, first compound 0.003 µM): 99.3%
viability, T/C (second compound 0.316 µM, first compound 0.00949 µM): 11.2%
viability, T/C (second compound 0.316 µM, first compound 0.03 µM): 0.78%
viability, T/C (second compound 0.316 µM, first compound 0.0949 µM): 0.16%
viability, T/C (second compound 0.316 µM, first compound 0.3 µM): 0.08%
viability, T/C (second compound 1 µM, first compound 0.000949 µM): 98.4%
viability, T/C (second compound 1 µM, first compound 0.003 µM): 94%
viability, T/C (second compound 1 µM, first compound 0.00949 µM): 9.2%
viability, T/C (second compound 1 µM, first compound 0.03 µM): 0.72%
viability, T/C (second compound 1 µM, first compound 0.0949 µM): 0.26%
viability, T/C (second compound 1 µM, first compound 0.3 µM): 0.12%
viability, T/C (second compound 3.16 µM, first compound 0.000949 µM): 89.4%
viability, T/C (second compound 3.16 µM, first compound 0.003 µM): 91.6%
viability, T/C (second compound 3.16 µM, first compound 0.00949 µM): 11.7%
viability, T/C (second compound 3.16 µM, first compound 0.03 µM): 0.76%
viability, T/C (second compound 3.16 µM, first compound 0.0949 µM): 0.16%
viability, T/C (second compound 3.16 µM, first compound 0.3 µM): 0.1%
viability, T/C (second compound 10 µM, first compound 0.000949 µM): 91.6%
viability, T/C (second compound 10 µM, first compound 0.003 µM): 113%
viability, T/C (second compound 10 µM, first compound 0.00949 µM): 9.64%
viability, T/C (second compound 10 µM, first compound 0.03 µM): 0.68%
viability, T/C (second compound 10 µM, first compound 0.0949 µM): 0.18%
viability, T/C (second compound 10 µM, first compound 0.3 µM): 0.14%

IC50 (second compound 0.1 µM): 696 nM
IC50 (second compound 0.316 µM): 620 nM
IC50 (second compound 1 µM): 704 nM
IC50 (second compound 3.16 µM): 590 nM
IC50 (second compound 10 µM): 452 nM
SMILES: Nc1ccccc1NC(=O)c1ccc(CNC(=O)OCc2cccnc2)cc1 + CC(CO)NC(=O)c1cc(-c2ccc(Cl)cc2)nn(-c2cnn(C)c2)c1=O
viability, T/C [1]: 91.9%
viability, T/C [2]: 76.4%
viability, T/C [3]: 61.9%
viability, T/C [4]: 42%
viability, T/C [5]: 31.8%
viability, T/C [6]: 13%
viability, T/C [7]: 85.1%
viability, T/C [8]: 70.3%
viability, T/C [9]: 62.2%
viability, T/C [10]: 43.4%
viability, T/C [11]: 24.6%
viability, T/C [12]: 11.6%
viability, T/C [13]: 92.8%
viability, T/C [14]: 80.2%
viability, T/C [15]: 58.8%
viability, T/C [16]: 44%
viability, T/C [17]: 32.6%
viability, T/C [18]: 11.6%
viability, T/C [19]: 85.4%
viability, T/C [20]: 78.6%
viability, T/C [21]: 59%
viability, T/C [22]: 36.8%
viability, T/C [23]: 31.4%
viability, T/C [24]: 9.96%
viability, T/C [25]: 82.6%
viability, T/C [26]: 74.2%
viability, T/C [27]: 55.5%
viability, T/C [28]: 34%
viability, T/C [29]: 24.1%
viability, T/C [30]: 6.25%

IC50 (second compound 0.1 µM): 1490 nM
IC50 (second compound 0.316 µM): 1520 nM
IC50 (second compound 1 µM): 1510 nM
IC50 (second compound 3.16 µM): 1320 nM
IC50 (second compound 10 µM): 909 nM
SMILES: O=C(C=Cc1cccc(S(=O)(=O)Nc2ccccc2)c1)NO + CC(CO)NC(=O)c1cc(-c2ccc(Cl)cc2)nn(-c2cnn(C)c2)c1=O
viability, T/C [1]: 89.9%
viability, T/C [2]: 91.5%
viability, T/C [3]: 79.6%
viability, T/C [4]: 50.1%
viability, T/C [5]: 40.4%
viability, T/C [6]: 10.1%
viability, T/C [7]: 89.8%
viability, T/C [8]: 84.8%
viability, T/C [9]: 79.4%
viability, T/C [10]: 51%
viability, T/C [11]: 39.9%
viability, T/C [12]: 9.03%
viability, T/C [13]: 96%
viability, T/C [14]: 101%
viability, T/C [15]: 80.8%
viability, T/C [16]: 50.6%
viability, T/C [17]: 40.9%
viability, T/C [18]: 9.28%
viability, T/C [19]: 81.3%
viability, T/C [20]: 86.5%
viability, T/C [21]: 74.1%
viability, T/C [22]: 48%
viability, T/C [23]: 38.1%
viability, T/C [24]: 8.4%
viability, T/C [25]: 86.5%
viability, T/C [26]: 79.1%
viability, T/C [27]: 68.1%
viability, T/C [28]: 43.5%
viability, T/C [29]: 31.9%
viability, T/C [30]: 6.06%
